According to patent publication US12018006B2, “Method of producing EPD and analogues thereof” (priority 2017, dated 2024):

Tests used:
[1] = system: ovarian cancer cell line JC; test: In vitro cytotoxic activity, Presto blue assay, ovarian cancer cell line JC; format: cell-based
Experimental: (§1) The cytotoxic activity of the compounds was tested using methods as described earlier (van Haaften et al. Journal of Experimental & Clinical Cancer Research (2015) 34:38). In short, 3×10^4 cells of the ovarian cancer cell line JC (Van Haaften-Day et al. Cancer Res. 1983) were seeded in 24-well plates (Costar, Denmark) in DMEM/F12 medium (Invitrogen) containing 10% of Fetal Calf Serum (FCS, Sigma), 50 U penicillin and 50 μg/mL streptomycin (Invitrogen). The cells were incubated at 37° C. in a 9% CO2 incubator with 95% humidity. After 24 hours, solutions 1-6 were added to the cell cultures.
(§2) Cytotoxic activity of each of the compounds was determined after 72 hours in a standard Presto blue assay (see Van Haaften et al. J Exp Clin Cancer Res. 2015 34(1): 38 for details on the method). Each compound's solution as described above was diluted 100, 200 and 400 times respectively.

[2] = system: ovarian cancer cell line A2780AD; test: Growth of multi-drug resistant ovarian cancer cell line A2780AD after 72 hrs; format: cell-based, human; settings: for growth of the cell line, % of the control value: 72 hrs, control (medium) = 100%
Experimental: as §1, §2
Also the effect of synthetic EPD was tested on an ovarian cancer cell line A2780AD, ATCC using methods as described above, whereby the experiment was ended after 72 hrs. Cell line A2780AD, a multi-drug resistant human ovarian cancer cell line, is resistant to paclitaxel. It was shown that at 1, 1.5 and 2 μg/mL of synthetic EPD, the growth of the cell line after 72 hrs was reduced to 40%, 13% and 8% of the control value (100%, medium), respectively.

[3] = system: cervical cancer cell line Siha; test: Effect of synthetic EPD on growth of cervical cancer cell line Siha; format: cell-based; settings: for cancer cell growth reduced by: Siha, FIG. 1B
Experimental: (§3) Further, the effect of synthetic EPD (1-3 μg/mL) was studied on normal fibroblasts and compared with the effect on a cervical cancer cell line Siha (FIG. 1B). […] At a concentration of 1 μg/mL, fibroblast growth was unaffected, whereas cancer cell growth was reduced by almost 20%. At a concentration of […], fibroblast growth was reduced by almost 20%, whereas cancer cell growth was reduced by more than 80%, and at a concentration of 3 μg/mL, fibroblast growth was reduced by 35%, whereas cancer cell growth was reduced by almost 97%.

[4] = system: normal fibroblasts; test: Effect of synthetic EPD on growth of normal fibroblasts; format: cell-based; settings: FIG. 1B
Experimental: as §3

[5] = system: normal cells; settings: cited from earlier work
[6] = system: ovarian cancer; settings: cited from earlier work

C=C1C(=O)O[C@H]2CC3=CCCC[C@]3(C)C[C@@H]12 (relative stereo) [racemic mixture of the (mono) methyl analogue, (rel3aS,4aR,9aS)-4α-methyl-3-methylene-3a,4,4a,5,6,7,9,9a-octahydronaphtho[2,3-b]furan-2(3H)-one]
cytotoxic activity ([1]; JC cells, 72 hours, solutions diluted 100, 200 and 400 times, FIG. 1A, compared with natural EPD): demonstrates cytotoxic activity

C=C1C(=O)O[C@@H]2CC3=CCC[C@H](C)[C@@]3(C)C[C@H]12 (single isomer, unassigned) [synthetic EPD, eremophila-1(10)-11(13)-dien-12,8β-olide]
growth of the cell line, % of the control value ([2]; 1 μg/mL): 40%
growth of the cell line, % of the control value ([2]; 1.5 μg/mL): 13%
growth of the cell line, % of the control value ([2]; 2 μg/mL): 8%
dose-dependent effect on cancer cells compared with fibroblasts ([3]; Siha vs normal fibroblasts, 1-3 μg/mL): much higher on cancer cells than on fibroblasts
cancer cell growth reduced by ([3]; synthetic EPD 1 μg/mL): ~20%
cancer cell growth reduced by ([3]; synthetic EPD 3 μg/mL): ~97%
cancer cell growth reduced by ([3]; synthetic EPD 2 g/mL): more than 80%
fibroblast growth ([4]; synthetic EPD 1 μg/mL): unaffected
fibroblast growth reduced by ([4]; synthetic EPD 2 μg/mL): ~20%
fibroblast growth reduced by ([4]; synthetic EPD 3 μg/mL): 35%
inhibition of JC cells compared with paclitaxel ([1]; JC as control cell line, FIG. 1C): at least as effective as paclitaxel

C=C1C(=O)O[C@@H]2CC3=CCC[C@H](C)[C@@]3(C)C[C@H]12 [EPD, eremophila-1(10)-11(13)-dien-12,8β-olide]
cytotoxic effects towards normal cells [5]: not towards normal cells
cytotoxic effects towards ovarian cancer [6]: potent cytotoxic effects

CC(=O)O[C@H]1C(=O)[C@@]2(C)[C@H]([C@H](OC(=O)c3ccccc3)[C@]3(O)C[C@H](OC(=O)[C@H](O)[C@@H](NC(=O)c4ccccc4)c4ccccc4)C(C)=C1C3(C)C)[C@]1(OC(C)=O)CO[C@@H]1C[C@@H]2O [paclitaxel, reference compound]
resistance of cell line A2780AD to the drug ([2]; 0.375 μg/mL): full resistance
